Measured values as given in article PMC12142043, “Cell-based high-content approach for SARS-CoV-2 neutralization identifies unique monoclonal antibodies and PI3K pathway inhibitors” (Frontiers in Cell and Developmental Biology, 2025).

Test system: SARS-CoV-2 (USA-WA1/2020) in Calu-3 cells
Type: cell-based
Settings: Calu-3, 48 h; for dsRNA signal, AU High: high dose (10 µM); for dsRNA signal, AU Low: low dose (100 nM)

| Molecule | dsRNA signal, AU High | dsRNA signal, AU Low |
| --- | --- | --- |
| CCCCCCCCCCCCCC(=O)O[C@@H]1[C@@H](C)[C@@]2(O)[C@@H](C=C(CO)C[C@]3(O)C(=O)C(C)=C[C@@H]23)[C@@H]2C(C)(C)[C@]12OC(C)=O | 6922.4 AU | 0.0 AU |
| 2-D08 | 21678.5 AU | 7689.9 AU |
| 6H05 | 9210.5 AU | 25435.6 AU |
| 10058-F4 | 21785.0 AU | 24031.2 AU |
| O=C(O)C(Cc1ccccc1[N+](=O)[O-])=NNc1nc(-c2ccc(Cl)c(Cl)c2)cs1 (mixture of isomers) [4EGI-1] | 27081.3 AU | 17726.3 AU |
| COC(=O)C1=C(C)NC(C)=C(C(=O)O[C@@H]2CCCN(Cc3ccccc3)C2)[C@@H]1c1cccc([N+](=O)[O-])c1.Cl (racemic) [Benidipine HCl] | 130.4 AU | 31078.1 AU |
| O=C(COc1ccc(Cl)cc1)NC1CCC(NC(=O)COc2ccc(Cl)cc2)CC1 (single isomer, unassigned) [ISRIB (trans-isomer)] | 6980.3 AU | 60689.2 AU |
| CC(=O)c1c(O)c(C)c(O)c2c1OC1=CC(=O)C(C(C)=O)C(=O)C12C (single isomer, unassigned; (+)) [(+)-Usniacin] | 3049.6 AU | 59009.6 AU |
| O=C1NC(=O)C(=Cc2ccc(-c3ccc(F)cc3)o2)S1 (stereo in doubt) [CAY10505] | 15375.8 AU | 16784.8 AU |
| BrC1C(Br)C(Br)C(Br)C(Br)C1Br (stereo not shown) [1,2,3,4,5,6-Hexabromocyclohexane] | 58.9 AU | 23091.7 AU |
| CCCCCCCCCCCC(=O)OC[C@H](CO)OC(=O)CCCCCCCCCCC [1,2-Dilauroyl-sn-glycerol] | 32229.3 AU | 52450.9 AU |
| OCC1OC(O)CC(O)C1O [2-Deoxy-D-glucose] | 5572.7 AU | 62378.7 AU |
| Cn1cnc(N)c2ncnc1-2 [3-Methyladenine] | 32357.3 AU | 26977.2 AU |
| Cc1c[nH]c2ccccc12 [3-Methylindole] | 0.0 AU | 1602.7 AU |
| O=C(CCl)c1c[nH]c2ccccc12 [3CAI] | 6736.4 AU | 43810.0 AU |
| O=C(O)c1ccc(N2C(=O)/C(=C\c3ccc(-c4ccc([N+](=O)[O-])cc4)o3)C=C2c2ccccc2)cc1 [4E1RCat] | 11534.6 AU | 17206.1 AU |
| Nc1ncnc2c1c(I)cn2[C@@H]1O[C@H](CO)[C@@H](O)[C@H]1O [5-Iodotubercidin] | 2639.0 AU | 20167.4 AU |
| O=c1cc(-c2ccccc2)oc2c(O)c(O)ccc12 [7,8-Dihydroxyflavone] | 9230.6 AU | 39399.4 AU |
| CCCCCCCC/C=C\CCCCCCCCCCCC(=O)O [13(Z)-Docosenoic Acid] | 4336.2 AU | 49926.0 AU |
| Cc1[nH]nc2ccc(-c3cncc(OC[C@@H](N)Cc4ccccc4)c3)cc12 [A-674563] | 0.0 AU | 6156.4 AU |
| Cc1c(NC(=O)OC[C@@H]2COCCN2)cn2ncnc(Nc3ccc4c(cnn4Cc4cccc(F)c4)c3)c12 [AC480 (BMS-599626)] | 468.1 AU | 62401.2 AU |
| COCc1c(-c2ccc(NC(=O)Nc3cc(C(F)(F)F)ccc3F)c(F)c2)c2c(N)ncnn2c1CN1CCOCC1 [ACTB-1003] | 28009.9 AU | 9584.0 AU |
| N#C/C(=C/c1ccc(O)c(O)c1)C(=O)NCc1ccccc1 [AG-490] | 8748.3 AU | 4415.8 AU |
| CC(C)(C)c1cc(C=C(C#N)C#N)cc(Br)c1O [AG-1024] | 1211.9 AU | 44737.5 AU |
| COc1cc2ncnc(Nc3cccc(Cl)c3)c2cc1OC [AG-1478] | 1676.2 AU | 67129.9 AU |
| NC(=O)c1ncn([C@@H]2O[C@H](CO)[C@@H](O)[C@H]2O)c1N [AICAR] | 10649.1 AU | 34470.9 AU |
| c1ccc(-c2oc3ncnc(NC[C@@H]4CCCO4)c3c2-c2ccccc2)cc1 [AIM-100] | 17272.0 AU | 4414.3 AU |
| O=c1[nH]c2ccccc2n1C1CCN(Cc2ccc(-c3nc4cc5[nH]cnc5cc4nc3-c3ccccc3)cc2)CC1 [AKT inhibitor VIII] | 14379.0 AU | 47838.1 AU |
| O=C(Nc1ccccc1C(=O)NC1CCCCNC1=O)c1cc2ccccc2s1 (stereo not shown) [ANA 12] | 5083.5 AU | 20498.0 AU |
